Test results published in patent US20100324017A1, “ACYLGUANIDINE DERIVATIVE” (priority 2007, published 2010).

System: PCP-induced prepulse inhibition (PPI) disorder
Assay: Disorder of PCP-induced prepulse inhibition (PPI) in a rat
Type: in vivo
Details: dose 10 mg/kg, PCP 1 mg/kg s.c., % PPI
Procedure: An Improvement Effect for a Disorder of PCP-Induced Prepulse Inhibition (PPI) in a Rat
A startle amplitude occurs in humans to which an sound stimulus has been given, but in healthy human, this startle amplitude is inhibited by the giving of a weak sound stimulus that precedes the sound stimulus. For a patient with schizophrenia, the inhibitory function similarly declined. It is known that when a rat is administered with PCP (phencyclidine), there is a symptom similar to the negative symptom of schizophrenia in humans. Using this model, the improvement effect of the compound (I) for the information processing disorder included in cognitive impairment of schizophrenia was evaluated.
Species: Male Wistar rat/number of the animals (number of animals per group): 12 animals per group
Startle amplitude measuring device for small animals: an SR-LAB ABS system (manufactured by San Diego Instruments)
An animal holder, to which a Plexiglas-made cylinder for animal storage having a diameter of 8.2 cm was attached, was positioned in the upper part of a Plexiglas-made frame in a measurement box. In the measurement box, a sound-insulating treatment and ventilation (FAN) were carried out. Sound was administered by a speaker attached to the 24 cm upper part of the cylinder. The movement of the animals in the cylinder was detected by a transducer attached in the lower part of the frame and recorded by a microcomputer via an interface.
The experiment was initiated after the animals were put into the chamber for measurement and had spent 10 minutes adapting to the measurement environment. Basically, at 35 minutes after the compound to be tested was orally administered, 1 mg/kg of PCP was subcutaneously administered (1 ml/kg). Five minutes later, the rats were put into a chamber for measurement, allowed to adapt for 10 minutes, and the measurement was then initiated. A white noise of 65 dB (for all frequencies, a disordered noise having a constant energy per unit band) used as a background noise was always played through the break periods and the sessions. The three types of trials as shown below were carried out in a random order 10 times for each type with 30 times in total. Each trial was carried out at a pseudo-random interval of 20 to 60 seconds with an average of 40 seconds. A pulse was defined as a white noise of 120 dB, 20 msec, and a prepulse was defined as a white noise of 70, 80 dB, 20 msec.
The startle amplitude of the animal was measured for 100 msec from the initiation of the pulse, and the maximum value was taken as a “maximum startle amplitude (Vmax))”. The “maximum startle amplitude” for the ten times for each of the three types of trials were averaged, and taken as a “startle amplitude (simply referred to as SA)” under the stimulation condition.
The % prepulse inhibition (% PPI) was calculated in the following equation in the PP80 & P trial of 3) above.
% Prepulse inhibition (% PPI)=(Startle amplitude at P-alone trial (SA)−Startle amplitude (SA) at a PP80 & P trial)/Startle amplitude at P alone trial×100
The measured value was expressed as an average value (mean±SE). First, the startle amplitudes (SA) were statistically analyzed. […] For the measured data of % PPI, the normal group and the control group (the group administered with PCP) were compared by a Student t-test, and for the control group and the group administered with the compound to be tested were compared using a Dunnett evaluation. […] The effect of the compound to be tested was assessed with % PPI.

## OCCOCCN1CCN(C2=Nc3ccccc3Sc3ccccc32)CC1 [quetiapine, reference compound]
  improvement of the PCP-induced PPI: significantly improved
